Measurements published in patent US12172995B2, “Substituted indole and indazole compounds” (BRISTOL-MYERS SQUIBB COMPANY, priority 2018, dated 2024).

Experiments:
Type in all cases: cell-based
human TLR9 = target: T1, human TLR9 (Homo sapiens, UniProt Q9NR96); assay: TLR9 inhibition reporter assay (HEK-Blue SEAP); details: HEK-Blue cells overexpressing human TLR9, stimulated with ODN2006 5 nM, 22 hour incubation
T1 construct: host or cells: HEK-Blue cells
T1 sequence (Q9NR96 26-1032): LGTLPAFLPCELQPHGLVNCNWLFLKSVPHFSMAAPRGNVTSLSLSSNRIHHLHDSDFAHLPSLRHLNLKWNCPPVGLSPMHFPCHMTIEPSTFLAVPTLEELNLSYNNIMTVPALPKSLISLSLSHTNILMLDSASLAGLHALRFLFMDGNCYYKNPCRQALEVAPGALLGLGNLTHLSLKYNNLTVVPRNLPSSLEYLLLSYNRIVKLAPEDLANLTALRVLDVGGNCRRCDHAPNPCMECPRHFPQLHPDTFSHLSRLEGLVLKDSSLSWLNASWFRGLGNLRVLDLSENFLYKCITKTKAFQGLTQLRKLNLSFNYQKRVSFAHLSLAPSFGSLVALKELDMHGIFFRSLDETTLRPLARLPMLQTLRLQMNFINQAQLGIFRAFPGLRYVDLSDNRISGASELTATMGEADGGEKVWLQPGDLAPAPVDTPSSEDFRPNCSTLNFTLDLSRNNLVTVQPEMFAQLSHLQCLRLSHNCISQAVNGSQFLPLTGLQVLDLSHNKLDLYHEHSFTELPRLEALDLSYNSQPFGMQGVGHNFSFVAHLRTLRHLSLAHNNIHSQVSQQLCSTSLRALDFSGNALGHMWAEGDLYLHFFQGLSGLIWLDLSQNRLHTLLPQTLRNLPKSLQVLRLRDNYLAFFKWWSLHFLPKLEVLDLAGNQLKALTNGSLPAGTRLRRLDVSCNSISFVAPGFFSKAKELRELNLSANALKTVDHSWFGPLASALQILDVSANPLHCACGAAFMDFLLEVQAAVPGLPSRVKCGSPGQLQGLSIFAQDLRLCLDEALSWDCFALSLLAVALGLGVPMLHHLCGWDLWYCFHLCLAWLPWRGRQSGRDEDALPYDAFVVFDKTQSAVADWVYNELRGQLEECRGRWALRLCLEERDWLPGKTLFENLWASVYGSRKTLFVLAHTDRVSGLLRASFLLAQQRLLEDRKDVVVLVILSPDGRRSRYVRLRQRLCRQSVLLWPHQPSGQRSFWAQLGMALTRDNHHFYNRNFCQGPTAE
Experimental: (§1) TLR7/8/9 Inhibition Reporter Assays
(§2) HEK-Blue™-cells (Invivogen) overexpressing human TLR7, TLR8 or TLR9 receptors were used for screening inhibitors of these receptors using an inducible SEAP (secreted embryonic alkaline phosphatase) reporter gene under the control of the IFN-β minimal promoter fused to five NF-κB and AP-1-binding sites. Briefly, cells are seeded into Greiner 384 well plates (15000 cells per well for TLR7, 20,000 for TLR8 and 25,000 for TLR9) and then treated with test compounds in DMSO to yield a final dose response concentration range of 0.05 nM to 50 μM. After a 30 minute compound pre-treatment at room temperature, the cells are then stimulated with a TLR7 ligand (gardiquimod at a final concentration of 7.5 μM), TLR8 ligand (R848 at a final concentration of 15.9 μM) or TLR9 ligand (ODN2006 at a final concentration of 5 nM) to activate NF-κB and AP-1 which induce the production of SEAP. After a 22 hour incubation at 37° C., 5% CO2, SEAP levels are determined with the addition of HEK-Blue™ Detection reagent (Invivogen), a cell culture medium that allows for detection of SEAP, according to manufacturer's specifications. The percent inhibition is determined as the % reduction in the HEK-Blue signal present in wells treated with agonist plus DMSO alone compared to wells treated with a known inhibitor.

human TLR8 = target: T2, human TLR8 (Homo sapiens, UniProt Q9NR97); assay: TLR8 inhibition reporter assay (HEK-Blue SEAP); details: HEK-Blue cells overexpressing human TLR8, stimulated with R848 15.9 μM, 22 hour incubation
T2 construct: host or cells: HEK-Blue cells
T2 sequence (Q9NR97 27-1041): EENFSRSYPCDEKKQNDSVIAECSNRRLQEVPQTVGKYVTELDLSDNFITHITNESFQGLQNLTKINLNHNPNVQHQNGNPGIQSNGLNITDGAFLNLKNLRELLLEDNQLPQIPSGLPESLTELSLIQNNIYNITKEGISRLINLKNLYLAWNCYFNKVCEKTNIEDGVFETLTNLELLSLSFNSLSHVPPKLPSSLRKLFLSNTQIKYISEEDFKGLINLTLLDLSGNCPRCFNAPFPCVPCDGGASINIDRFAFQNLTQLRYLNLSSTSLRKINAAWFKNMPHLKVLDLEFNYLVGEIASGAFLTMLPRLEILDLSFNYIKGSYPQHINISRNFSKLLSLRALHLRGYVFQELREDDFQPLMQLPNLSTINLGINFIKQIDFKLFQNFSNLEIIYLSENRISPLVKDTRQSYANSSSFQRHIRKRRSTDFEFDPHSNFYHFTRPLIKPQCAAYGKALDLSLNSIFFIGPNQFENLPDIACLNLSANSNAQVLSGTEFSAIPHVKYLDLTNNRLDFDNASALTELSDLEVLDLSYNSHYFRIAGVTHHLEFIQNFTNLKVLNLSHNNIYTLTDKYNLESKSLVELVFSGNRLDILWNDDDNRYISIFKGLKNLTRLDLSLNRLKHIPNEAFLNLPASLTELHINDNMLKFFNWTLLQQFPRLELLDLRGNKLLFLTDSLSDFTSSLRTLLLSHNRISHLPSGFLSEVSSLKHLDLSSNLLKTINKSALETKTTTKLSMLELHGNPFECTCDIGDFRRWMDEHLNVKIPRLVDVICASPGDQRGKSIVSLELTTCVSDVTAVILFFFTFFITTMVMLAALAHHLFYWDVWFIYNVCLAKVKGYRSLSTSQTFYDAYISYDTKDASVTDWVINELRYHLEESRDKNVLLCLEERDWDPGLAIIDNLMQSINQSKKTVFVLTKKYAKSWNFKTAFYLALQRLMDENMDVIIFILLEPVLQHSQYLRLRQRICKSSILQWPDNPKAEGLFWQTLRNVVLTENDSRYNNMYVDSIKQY
Experimental: as §1, §2

human TLR7 = target: T3, human TLR7 (Homo sapiens, UniProt Q9NYK1); assay: TLR7 inhibition reporter assay (HEK-Blue SEAP); details: HEK-Blue cells overexpressing human TLR7, stimulated with gardiquimod 7.5 μM, 22 hour incubation
T3 construct: host or cells: HEK-Blue cells
T3 sequence (Q9NYK1 27-1049): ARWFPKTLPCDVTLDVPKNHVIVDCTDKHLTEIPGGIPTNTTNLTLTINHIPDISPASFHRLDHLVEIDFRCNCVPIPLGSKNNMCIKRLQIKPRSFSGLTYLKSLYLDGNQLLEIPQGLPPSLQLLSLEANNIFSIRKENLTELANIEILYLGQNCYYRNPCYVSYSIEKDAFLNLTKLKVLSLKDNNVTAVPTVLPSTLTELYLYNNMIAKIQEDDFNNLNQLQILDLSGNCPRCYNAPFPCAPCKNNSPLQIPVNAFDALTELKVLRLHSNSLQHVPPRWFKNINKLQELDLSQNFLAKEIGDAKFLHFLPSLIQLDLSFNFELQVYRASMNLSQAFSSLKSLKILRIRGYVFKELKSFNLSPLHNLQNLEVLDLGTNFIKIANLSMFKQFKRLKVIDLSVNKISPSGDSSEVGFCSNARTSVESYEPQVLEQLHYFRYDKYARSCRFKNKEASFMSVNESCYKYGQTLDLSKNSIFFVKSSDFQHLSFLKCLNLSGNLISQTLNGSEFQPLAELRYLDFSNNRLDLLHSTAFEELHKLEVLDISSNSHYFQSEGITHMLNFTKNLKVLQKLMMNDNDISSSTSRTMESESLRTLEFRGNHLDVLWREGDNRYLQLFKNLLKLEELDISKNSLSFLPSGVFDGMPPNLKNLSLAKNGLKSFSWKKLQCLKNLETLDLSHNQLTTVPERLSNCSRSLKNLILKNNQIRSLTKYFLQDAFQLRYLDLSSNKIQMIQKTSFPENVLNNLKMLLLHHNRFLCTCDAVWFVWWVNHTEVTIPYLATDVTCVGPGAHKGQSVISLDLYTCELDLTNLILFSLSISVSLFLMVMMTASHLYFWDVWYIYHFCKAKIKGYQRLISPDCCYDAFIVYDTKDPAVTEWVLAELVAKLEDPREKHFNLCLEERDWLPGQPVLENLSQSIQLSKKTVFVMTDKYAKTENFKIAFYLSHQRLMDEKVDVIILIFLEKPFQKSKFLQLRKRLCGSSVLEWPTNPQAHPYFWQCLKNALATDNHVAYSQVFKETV
Experimental: as §1, §2

| IC50 (human TLR9) [nM] | IC50 (human TLR8) [nM] | IC50 (human TLR7) [nM] | SMILES |
| --- | --- | --- | --- |
| 6180 | 0.8 | 3.7 | CCc1cc(-c2cc(C)c3ncnn3c2)cc2[nH]nc(OC3CCNCC3)c12 [Example 195, 6-(4-ethyl-3-(piperidin-4-yloxy)-1H-indazol-6-yl)-8-methyl-[1,2,4]triazolo[1,5-a]pyridine] |
| 5660 | 0.1 | 0.5 | Cc1cc(-c2cc3[nH]nc(C4CCN(C(C)C)CC4)c3cc2C(C)C)cn2ncnc12 [Example 123, 6-(5-isopropyl-3-(1-isopropylpiperidin-4-yl)-1H-indazol-6-yl)-8-methyl-[1,2,4] triazolo[1,5-a]pyridine] |
| 1830 | 0.5 | 1.2 | CCc1cc(-c2cc(C)c3ncnn3c2)cc2[nH]nc(OC3CCC(N(C)C)CC3)c12 (single isomer, unassigned) [Example 169, 4-((4-ethyl-6-(8-methyl-[1,2,4]triazolo[1,5-a]pyridin-6-yl)-1H-indazol-3-yl)oxy)-N,N-dimethylcyclohexan-1-amine] |
| 13700 | 0.8 | 3.2 | Cc1cc(-c2cc3[nH]nc(C4CCN(C(=O)CCN(C)C)CC4)c3cc2C(C)C)cn2ncnc12 [Example 122, 3-(dimethylamino)-1-(4-(5-isopropyl-6-(8-methyl-[1,2,4]triazolo[1,5-a]pyridin-6-yl)-1H-indazol-3-yl)piperidin-1-yl)propan-1-one] |
| ≥ 50000 | 19.9 | 71.7 | Cc1cc2c(OC3CCC(N(C)C)CC3)n[nH]c2cc1-c1cc(C)c2ncnn2c1 (single isomer, unassigned) [Example 181, N,N-dimethyl-4-((5-methyl-6-(8-methyl-[1,2,4]triazolo[1,5-a]pyridin-6-yl)-1H-indazol-3-yl)oxy)cyclohexan-1-amine] |

The next lines start with the compound.

| SMILES | IC50 (human TLR9) [nM] | IC50 (human TLR8) [nM] | IC50 (human TLR7) [nM] |
| --- | --- | --- | --- |
| Cc1cc2c(C3CCCN(CC(=O)N(C)C)C3)n[nH]c2cc1-c1cc(C)c2ncnn2c1 (stereo not drawn) [Example 41, N,N-dimethyl-2-(3-(5-methyl-6-(8-methyl-[1,2,4]triazolo[1,5-a]pyridin-6-yl)-1H-indazol-3-yl)piperidin-1-yl) acetamide] | 7300 | 1.9 | 20 |
| CCc1cc2c(C3CCN(C(=O)CCN(C)C)CC3)n[nH]c2cc1-c1cc(C)c2ncnn2c1 [Example 103, 3-(dimethylamino)-1-(4-(5-ethyl-6-(8-methyl-[1,2,4]triazolo[1,5-a]pyridin-6-yl)-1H-indazol-3-yl)piperidin-1-yl)propan-1-one] | 12200 | 0.9 | 11 |
| Cc1cc(-c2cc3[nH]nc(C4CCC(N5CC6(C5)CS(=O)(=O)C6)CC4)c3cc2C(C)C)cn2ncnc12 (single isomer, unassigned) [Example 142, 6-(4-(5-isopropyl-6-(8-methyl-[1,2,4]triazolo[1,5-a]pyridin-6-yl)-1H-indazol-3-yl)cyclohexyl)-2-thia-6-azaspiro[3.3]heptane 2,2-dioxide] | 9710 | 0.2 | 1.3 |
| Cc1cc(-c2ccc3c(C(=O)NC4CCNCC4)n[nH]c3c2)cn2ncnc12 [Example 199, 6-(8-methyl-[1,2,4]triazolo[1,5-a]pyridin-6-yl)-N-(piperidin-4-yl)-1H-indazole-3-carboxamide] | 4370 | 218 | 226 |
| Cc1cc2c(OC3CCN(C)CC3)n[nH]c2cc1-c1cc(C)c2ncnn2c1 [Example 171, 8-methyl-6-(5-methyl-3-((1-methylpiperidin-4-yl)oxy)-1H-indazol-6-yl)-[1,2,4]triazolo[1,5-a] pyridine] | 2770 | 0.1 | 8.2 |
| Cc1cc2c(C3CCC(NCCS(C)(=O)=O)CC3)n[nH]c2cc1-c1cc(C)c2ncnn2c1 (stereo not drawn) [Example 31, 4-(5-methyl-6-(8-methyl-[1,2,4]triazolo[1,5-a]pyridin-6-yl)-1H-indazol-3-yl)-N-(2-(methylsulfonyl)ethyl)cyclohexan-1-amine] | 6120 | 0.6 | 39.8 |
| Cc1cc(-c2cc3[nH]nc(C4CCC(N5CCC6(CCOC6)C5)CC4)c3cc2C(C)C)cn2ncnc12 (single isomer, unassigned) [Example 209, 7-(4-(5-isopropyl-6-(8-methyl-[1,2,4]triazolo[1,5-a]pyridin-6-yl)-1H-indazol-3-yl)cyclohexyl)-2-oxa-7-azaspiro[4.4]nonane] | 8000 | 0.05 | 0.62 |
